For this data set the following is noted: rabbit.

Consider `Cc1c(NC2=NCCN2)ccc2c1NCCO2` [Example 16], for which the “IOP of the untreated eye (systemic effect)” value (in vivo) is given as “without lowering IOP in the untreated eye”. The “lowering of intraocular pressure (IOP), treated eye” value (single drop of 0.001%, topical, one eye) is on record as “greater effect in lowering IOP than clonidine”.

The values are drawn from patent publication US6087361A, “Aryl-imidazolines and aryl-imidazoles useful as α-2 adrenergic agonists without cardiovascular side effects” (Allergan Sales, Inc., priority 1997, dated 2000).
